Assay results reported in patent US7173019B2, “Linked cyclitols and their polysulfated derivatives” (The Australian National University, priority 2001, dated 2007).
Where two headings read alike, the source gives them in different places.

What was measured:
[1] = target: aFGF (Homo sapiens, UniProt P05230); assay: Biacore biosensor: inhibition of aFGF binding to immobilised heparin and heparan sulfate; conditions: inhibitor 0.034 μM, aFGF 0.025 μM
Experimental: (§1) Assays were performed using a Biacore™ 2000 optical biosensor obtained from Biacore AB, Uppsala, Sweden. The biosensor was operated in accordance with the manufacturer's instructions. Briefly, neutravidin was covalently coupled to the surface of CM5 chips of the biosensor and then either biotinylated heparin (1 μg/ml) or biotinylated heparan sulfate ([…]) bound to the immobilised neutravidin. Mixtures of a test compound and a growth factor or other effector compound were preincubated for 2 to 5 minutes and the mixtures then added to individual biosensor cuvettes. Binding of growth factor or effector compound to the heparin or heparan sulfate was then monitored for approximately 5 minutes with the biosensor.
(§2) The tabulated values are the IC50 in μM or % inhibition of binding of the growth factor to the immobilised heparan sulfate (HS) or heparin.

[2] = target: T1, VEGF (Homo sapiens, UniProt P15692); assay: Biacore biosensor: inhibition of VEGF binding to immobilised heparin and heparan sulfate; conditions: inhibitor 0.034 μM, VEGF 0.025 μM
T1 sequence (P15692 27-191 isoform P15692-4): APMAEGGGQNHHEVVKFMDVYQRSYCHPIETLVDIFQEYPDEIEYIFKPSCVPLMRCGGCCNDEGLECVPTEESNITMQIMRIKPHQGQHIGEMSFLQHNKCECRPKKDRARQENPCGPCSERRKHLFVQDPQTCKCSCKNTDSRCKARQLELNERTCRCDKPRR
Experimental: as §1, §2

[3] = target: T2, human platelet heparanase (Homo sapiens, UniProt Q9Y251); assay: Heparanase inhibition, 3H-radiolabelled HS cleavage assay; type: biochemical; conditions: for EC50: heparanase inhibition; for inhibition: read-out: Relative inhibition (%); for inhibition at 10 µg/mL: read-out: Inhibition (%) at 10 μg/ml
T2 construct: 10 ng of purified human platelet heparanase; from tissue; host or cells: human platelets
T2 sequence (Q9Y251 158-543 limits assumed): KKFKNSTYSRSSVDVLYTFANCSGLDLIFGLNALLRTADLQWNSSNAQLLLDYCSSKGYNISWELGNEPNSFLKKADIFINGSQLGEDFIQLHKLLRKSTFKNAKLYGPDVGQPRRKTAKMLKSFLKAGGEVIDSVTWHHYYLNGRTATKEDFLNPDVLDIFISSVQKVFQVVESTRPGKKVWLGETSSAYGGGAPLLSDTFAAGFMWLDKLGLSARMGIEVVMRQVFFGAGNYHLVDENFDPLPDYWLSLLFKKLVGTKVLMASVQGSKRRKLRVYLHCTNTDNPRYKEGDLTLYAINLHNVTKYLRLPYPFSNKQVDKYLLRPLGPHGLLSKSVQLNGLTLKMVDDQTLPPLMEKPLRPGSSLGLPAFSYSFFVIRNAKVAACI
T2 sequence (Q9Y251 36-109 limits assumed): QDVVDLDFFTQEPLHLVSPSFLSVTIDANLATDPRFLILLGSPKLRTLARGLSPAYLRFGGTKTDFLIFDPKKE
Experimental: Briefly, to an incubation mixture of […] containing ^3H-radiolabelled porcine mucosal HS […], 50 mM-sodium acetate buffer, pH 5.0, […] bovine serum albumin and the inhibitor to be tested, was added 10 ng of purified human platelet heparanase and the mixture incubated for 30 min. The reaction was terminated by freezing the assay tubes. The substrate was separated from the cleavage products on minicolumns of sepharose-bound histidine-rich glycoprotein (Freeman, C., and Parish, C. R. [1997], supra).
Inhibitory activity is based on a comparison with heparin with 100% inhibition at 30 μg/ml. The compounds were also tested at the same purity as in Example 15.

[4] = target: T3, IL-8 (Homo sapiens, UniProt P10145); assay: Biacore biosensor: inhibition of IL-8 binding to immobilised heparin and heparan sulfate; conditions: inhibitor 1.0 μM, IL-8 0.068 μM
T3 sequence (P10145 21-99): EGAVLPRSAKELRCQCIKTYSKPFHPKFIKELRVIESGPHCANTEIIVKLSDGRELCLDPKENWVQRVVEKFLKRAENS
Experimental: as §1

[5] = target: bFGF (Homo sapiens, UniProt P09038); assay: Biacore biosensor: inhibition of bFGF binding to immobilised heparin and heparan sulfate
Experimental: as §1, §2

[6] = target: T4, human leukocyte Cathepsin G (Homo sapiens, UniProt P08311); assay: Cathepsin G inhibition, fluorogenic substrate, 96 well assay; type: biochemical; conditions: human leukocyte cathepsin G 100 ng, 37° C., 60 min, pH 6.6; for IC50: read-out: Amount for 50% inhibition (converted)
T4 construct: human leukocyte Cathepsin G (100 ng protein); from tissue; host or cells: human leukocytes
T4 sequence (P08311 21-244): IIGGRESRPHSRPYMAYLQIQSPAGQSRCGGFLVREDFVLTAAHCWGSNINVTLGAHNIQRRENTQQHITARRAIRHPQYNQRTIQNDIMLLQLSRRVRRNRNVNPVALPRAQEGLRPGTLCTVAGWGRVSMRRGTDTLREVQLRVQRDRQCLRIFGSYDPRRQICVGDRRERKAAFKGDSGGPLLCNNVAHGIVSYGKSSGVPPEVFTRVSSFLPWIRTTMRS
Experimental: Cathepsin G activity was determined using a 96 well assay format in PVC microtitre U-bottom plates with activity determination by a fluorescence plate reader. Briefly, within a total incubation volume of 40 μl, human leukocyte Cathepsin G (100 ng protein) was added to a mixture of inhibitor and the fluorogenic substrate MeOSuc-ala-ala-pro-phe-AMAC in 50 mM-NaOAc buffer, pH 6.6 containing 50 mM NaCl and 0.1% (v/v) Brij 35. The mixture was incubated at 37° C. for 60 min, the reaction stopped by the addition of 40 μl of 250 mM acetic acid and the fluorescence determined with excitation at 360 nm and emitted light measured at 460 nm.
In this table, the linked cyclitol compound identifications are the same as those given in Section A above where the structures of the compounds are also given. With regard to the purity rating, a greater number of asterisks signifies a greater degree of purity with five asterisks signifying an essentially pure compound. The cathepsin G inhibition data are the concentrations of compounds required to inhibit the enzyme by 50%.

[7] = based on a comparison with heparin with 100% inhibition at 30 μg/ml
[8] = immobilised heparan sulfate, read-out: IC50, inhibition of bFGF binding (HS)
[9] = immobilised heparin, read-out: IC50, inhibition of bFGF binding (Hep)
[10] = immobilised heparan sulfate, read-out: Inhibition of binding of aFGF (HS)
[11] = immobilised heparin, read-out: Inhibition of binding of aFGF (Hep)
[12] = immobilised heparan sulfate, read-out: Inhibition of binding of VEGF (HS)
[13] = immobilised heparin, read-out: Inhibition of binding of VEGF (Hep)
[14] = immobilised heparan sulfate, read-out: Inhibition of binding of IL-8 (HS)
[15] = immobilised heparin, read-out: Inhibition of binding of IL-8 (Hep)
[16] = immobilised heparan sulfate, inhibitor 0.034 μM, bFGF 0.034 μM, read-out: Inhibition of binding of bFGF (HS)
[17] = immobilised heparin, inhibitor 0.034 μM, bFGF 0.034 μM, read-out: Inhibition of binding of bFGF (Hep)

bFGF, sequence (P09038 134-288 limits assumed, species assumed): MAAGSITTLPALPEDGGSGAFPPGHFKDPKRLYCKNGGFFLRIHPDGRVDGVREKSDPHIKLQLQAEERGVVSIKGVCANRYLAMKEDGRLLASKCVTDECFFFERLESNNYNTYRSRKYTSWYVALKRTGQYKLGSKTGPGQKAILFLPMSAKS
aFGF, sequence (P05230 whole entry, species assumed): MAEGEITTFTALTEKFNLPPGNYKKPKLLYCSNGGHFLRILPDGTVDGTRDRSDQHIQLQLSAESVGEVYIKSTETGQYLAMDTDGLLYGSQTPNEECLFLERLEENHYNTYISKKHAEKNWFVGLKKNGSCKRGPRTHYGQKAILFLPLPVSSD

Compound	IC50 [5, 8]	IC50 [5, 9]	inhibition at 0.034 µM [1, 10]	inhibition at 0.034 µM [1, 11]	inhibition at 0.034 µM [2, 12]	inhibition at 0.034 µM [2, 13]	inhibition [3, 7]	EC50 ([3]; read-out: EC50 (converted))	inhibition at 10 µg/mL [3]	inhibition at 1 µM [4, 14]	inhibition at 1 µM [4, 15]	inhibition at 0.034 µM [5, 16]	inhibition at 0.034 µM [5, 17]	IC50 [6]	other results
O=S(=O)(O)OC1C(OS(=O)(=O)O)C(OS(=O)(=O)O)C(N(Cc2cccc(CN(C3C(OS(=O)(=O)O)C(OS(=O)(=O)O)C(OS(=O)(=O)O)C(OS(=O)(=O)O)C3OS(=O)(=O)O)C3C(OS(=O)(=O)O)C(OS(=O)(=O)O)C(OS(=O)(=O)O)C(OS(=O)(=O)O)C3OS(=O)(=O)O)c2)C2C(OS(=O)(=O)O)C(OS(=O)(=O)O)C(OS(=O)(=O)O)C(OS(=O)(=O)O)C2OS(=O)(=O)O)C(OS(=O)(=O)O)C1OS(=O)(=O)O (stereo not shown) [Compound 5d]	38 nM	160 nM													Inhibition of binding of aFGF (HS) ([1]; immobilised heparan sulfate): 67% (HS); Inhibition of binding of aFGF (Hep) ([1]; immobilised heparin): 72% (Hep); Inhibition of binding of VEGF (HS) ([2]; immobilised heparan sulfate): 39% (HS); Inhibition of binding of VEGF (Hep) ([2]; immobilised heparin): 54% (Hep); Relative inhibition (%) [3, 7]: 100%; EC50 [3]: 6 µg/mL; Inhibition of binding of IL-8 (HS) ([4]; immobilised heparan sulfate): 62% (HS); Inhibition of binding of IL-8 (Hep) ([4]; immobilised heparin): 71% (Hep); Inhibition of binding of bFGF (HS) ([5]; immobilised heparan sulfate, inhibitor 0.034 μM, bFGF 0.034 μM): 48% (HS); Inhibition of binding of bFGF (Hep) ([5]; immobilised heparin, inhibitor 0.034 μM, bFGF 0.034 μM): 35% (Hep); Amount for 50% inhibition [6]: 0.53 µg/mL
O=S(=O)(O)O[C@H]1[C@H](OS(=O)(=O)O)[C@@H](N(CCN([C@H]2C=C[C@@H](OS(=O)(=O)O)[C@@H](OS(=O)(=O)O)[C@@H]2OS(=O)(=O)O)[C@H]2C=C[C@@H](OS(=O)(=O)O)[C@@H](OS(=O)(=O)O)[C@@H]2OS(=O)(=O)O)[C@H]2C=C[C@@H](OS(=O)(=O)O)[C@@H](OS(=O)(=O)O)[C@@H]2OS(=O)(=O)O)C=C[C@H]1OS(=O)(=O)O [Compound 4f]	240 nM	> 250 nM	68%	65%	0%	0%	60%	11100 nM	44%	38%	48%	19%	15%	189 nM	
O=S(=O)(O)O[C@H]1[C@H](OS(=O)(=O)O)[C@@H](N(CCCCN([C@H]2C=C[C@@H](OS(=O)(=O)O)[C@@H](OS(=O)(=O)O)[C@@H]2OS(=O)(=O)O)[C@H]2C=C[C@@H](OS(=O)(=O)O)[C@@H](OS(=O)(=O)O)[C@@H]2OS(=O)(=O)O)[C@H]2C=C[C@@H](OS(=O)(=O)O)[C@@H](OS(=O)(=O)O)[C@@H]2OS(=O)(=O)O)C=C[C@H]1OS(=O)(=O)O [Compound 4g]		> 250 nM	43%	44%	10%	21%	57%	14100 nM	42%	42%	67%	44%	31%	128 nM	
O=S(=O)(O)O[C@H]1[C@H](OS(=O)(=O)O)[C@@H](N(CCCCCCCN([C@H]2C=C[C@@H](OS(=O)(=O)O)[C@@H](OS(=O)(=O)O)[C@@H]2OS(=O)(=O)O)[C@H]2C=C[C@@H](OS(=O)(=O)O)[C@@H](OS(=O)(=O)O)[C@@H]2OS(=O)(=O)O)[C@H]2C=C[C@@H](OS(=O)(=O)O)[C@@H](OS(=O)(=O)O)[C@@H]2OS(=O)(=O)O)C=C[C@H]1OS(=O)(=O)O [Compound 4h]			30%	28%	55%	68%	48%	20000 nM	33%	54%	52%	48%	40%	318 nM	
